The test system of test [1] is C4-2B and 22Rv1 cells. The test can be described thus: Colony formation, 14 d. The class given is cell-based, human. The procedure:
(§1) For apoptosis, Terminal deoxynucleotidyl transferase-mediated dUTP nick end labeling (TUNEL) was performed by using in situ cell death detection kit (Roche) as previously described^56. The results are expressed as a percentage of apoptotic cell number/total cell number. Caspase-3/7 activity was measured using a luminescent caspase-Glo 3/7 assay kit (Promega Corporation, Madison, USA) following the manufacturer's instructions. For cell growth, cells were seeded in 6-well plates at 2×10^5 per well and treated as indicated. Total viable cell numbers were counted using a Coulter cell counter. For colony formation, 800 cells were seeded in a well of 6-well plates and cultured for 14 days with the medium changed every 3 days. When the cell clone grew visible, the medium was removed and the cells were fixed with […] formalin for 10 minutes. Then the plates were washed with PBS for two times and the cell colonies were stained with 0.2% crystal violet (in 10% formalin) for 15 minutes. The numbers of cell colonies were counted after washed 5 times by PBS. The above assays were performed in triplicates and the entire experiments were repeated three times.

Test [2] deals with TNBC cells including MDA-MB468, MDA-MB231, BT20, SUM149, and HCC1937. The test can be described thus: CellTiter-GLO viability, triple-negative breast cancer cells. The class given is cell-based. As to conditions: Homo sapiens, 96 h, treated for 4 days. The procedure:
(§2) For cell viability, cells were seeded in 96-well plates at 1500-2500 cells per well (optimum density for growth) in a total volume of 100 μl media. Serially diluted compounds in […] of media were added to the cells 12 hours later. After 4 days of incubation, Cell-Titer GLO reagents (Promega) were added and luminescence was measured on GLOMAX microplate luminometer (Promega), according to the manufacturer's instructions. All experimental points were set up as sextuplicate as biological replication and the entire experiments were repeated three times. The data are presented as percentage of viable cells with vehicle treated cells set as 100. The estimated in vitro IC50 values were calculated using GraphPad Prism 6 software.
(§3) Using a CellTiter-GLO assay, the viability of cells of different cancer types was measured after treatment with different concentrations of RORγ small molecule inhibitors for 4 days.

Test [3] concerns C4-2B and 22Rv1 cells. The test can be described thus: Apoptosis (caspase-3/7 activity, TUNEL). The class given is cell-based, human. As to the method:
as §1

For a further test, the system named is LNCaP cells. The test can be described thus: Cell viability (Cell-Titer GLO), 4 days. It counts as cell-based. The conditions noted are these: Homo sapiens, 96 h, treated for 4 days, read-out: IC50 (growth inhibition). As to the method: as §2
Test [4] has as its system ER-positive cells, such as MCF-7 and T47D. The test can be described thus: CellTiter-GLO viability, ER-positive breast cancer cells. It counts as cell-based. The conditions noted are these: Homo sapiens, 96 h; ER-positive cells MCF-7 and T47D, treated for 4 days. The procedure:
as §2, §3
A general note: Cellular ATP, detected with luciferase, serves as a proxy for viable cell number.

A further test concerns AR and AR-V7. The test can be described thus: AR and AR variant expression (immunoblotting, qRT-PCR). It counts as cell-based, human. As to the method:
Total RNA was isolated from cells in 6-well or 10-cm plates or from xenograft tumors, and the cDNA was prepared, amplified and measured in the presence of SYBR as previously^49. Briefly, the fluorescent values were collected and a melting curve analysis was performed. Fold difference was calculated as described previously^49. The experiments were performed at least three times with data presented as mean values±s.d. Cell lysates were analyzed by immunoblotting with antibodies specifically recognizing RORγ, AR, AR-V7 and the indicated proteins. The PCR primers and all the antibodies used in this study are described in the Tables 3 and 4.

In a further test the test system is breast cancer cells. The test can be described thus: CellTiter-GLO viability, breast cancer cells. It counts as cell-based, human. As to conditions: cells having different major molecular features, 4 days. As to the method:
as §2, §3

The test system of test [5] is H3K4me3 and H3K27ac at the RORE site and AR promoter. The test can be described thus: ChIP-qPCR at the AR-RORE site and AR promoter. The conditions noted are these: C4-2B cells, 5 μM, 24 h. The class given is cell-based, human. The procedure: ChIP-qPCR analysis was performed as described previously^49. The antibodies used for ChIP assay are AR (Santa Cruz; sc-815); RNA Pol-II (Santa cruz; sc-899); H3K4me2 (Abcam ab32356); H3K4me3 (Abcam; ab8580); H3K27ac (Abcam; ab4729); H3 (Active Motif; #39163); p300 (Santa Cruz; sc-585); SRC-1 (Santa Cruz; sc-8995); SRC-3/ACTR^64, and IgG (Santa Cruz; sc-2027). PCR primers used in the ChIP assays were listed in the Supplementary table 2. ChiPs were performed with each experimental point in triplicate, and each experiment was repeated three times.

A further test deals with 22Rv1 xenografts. The test can be described thus: 22Rv1 xenograft tumor growth. It counts as in vivo, mice. As to conditions: nude mice; SR2211 5 mg/kg i.p., 8k/E11 10 and 20 mg/kg i.p., five times per week (FIG. 3A). The procedure: Four-week-old male SCID C.B17 mice (for C4-2B and VCaP) or BALB/c nu/nu athymic mice (for 22Rv11 and PC-3) were purchased from Harlan Inc. For establishing tumors, 2×10^6 cells were suspended in total of 100 μL PBS/Matrigel (1:1) and implanted subcutaneously into the dorsal flank on both sides of the mice. Animal group size of six or more was estimated to have a high statistic power, based on power calculation (http://www.biomath.info/power/) and previous studies involving the same xenograft models^34,68. When the tumor volume was approximately 80 mm^3, the mice were randomized and then treated intraperitoneally (i.p.) with 100 μl of either vehicle or RORγ antagonists SR2211, XY011/8k (in a formulation of 15% Cremophor EL, Calbiochem, 82.5% PBS, and 2.5% DMSO) for five times per week. Tumor growth was monitored by calipers with volume calculated using the equation: (π/6 (length×width2)). Body weight during the course of the study was also monitored. At the end of the studies mice were killed and tumors were dissected and weighed. Additionally, prostate, seminal vesicle, testis, kidney, heart, lung, liver, epididymal fat pad and spleen were harvested and weighed. To assess the effect of combining RORγ antagonists and ENZ on the growth of castrated-resistant VCaP xenografts (CRPC-VCaP), first, SCID C.B17 mice were injected with VCaP cells as above to establish the tumors. Then, mice bearing tumors of approximately 180 mm^3 were surgically castrated. They were then observed for tumor regression. Once tumors grew back to the pre-castration size, mice were randomized and treated with vehicle, 5 mg kg^−1 SR2211, 10 mg […] ENZ or a combination of 5 mg kg^−1 SR2211 and 10 mg kg^−1 ENZ. ENZ was given by oral gavage as previously described^68 and SR2211 was administered i.p as above. Mice were excluded from the study if bearing no tumor or tumor with size twice larger or smaller than the mean, at the time of randomization.

Where only a bound is given, the exact number is not on record here.

The term IC50 denotes the midpoint of a concentration-inhibition curve. `OC(c1ccc(-c2ccc(CN3CCN(Cc4ccncc4)CC3)cc2)c(F)c1)(C(F)(F)F)C(F)(F)F` [SR2211, 2-Fluoro-4′-[[4-(4-pyridinylmethyl)-1-piperazinyl]methyl]-a,a-bis (trifluoromethyl)-[1,1′-biphenyl]-4-methanol]: the colony formation entry in the test on C4-2B and 22Rv1 cells [1] was “poor colony formation”. Besides, the half-inhibitory concentration (IC50) was 1000 to 10000 nM in [2], 1500 nM with LNCaP cells and greater than 10000 nM in test [4]. Also, in the test with C4-2B and 22Rv1 cells [3], the apoptosis result is reported as “marked apoptosis”. Further, in the test with AR and AR-V7 (C4-2B and VCaP cells, 72 h), the “expression of AR and AR-V7” value is “potently inhibited the expression of AR and AR-V7 in a dose-dependent manner”. Further, the AR expression entry in the test on AR and AR-V7 (C4-2B cells, 5 μM, 24 hours) was “significant but incomplete suppression of AR expression”. Further, the “AR (full-length and spliced variants such as ARV7) mRNA and protein expression” value with AR and AR-V7 (qRT-PCR and Western blotting, PCa cells) is reported as “strongly inhibited the expression of AR”. Besides, in the test with breast cancer cells, the “growth and survival of breast cancer cells” value is “strongly inhibited the growth and survival of breast cancer cells”. In addition, in test [5], the “gene activating marks H3K4me3 and H3K27ac at the RORE site and AR promoter” value was “strongly reduced”. Further, the “growth of xenograft tumors” value in the test with 22Rv1 xenografts is recorded as “strongly inhibited growth of xenograft tumors”.

For the origin of these results see US10959984B2, “Methods for treating cancer with RORγ inhibitors” (THE REGENTS OF THE UNIVERSITY OF CALIFORNIA, priority 2015, dated 2021).
